Results published in patent US7307089B2, “Aryloxy quinolines and uses thereof” (Roche Palo Alto LLC, priority 2005, dated 2007).
Structures can show the parent of a compound that is named as a salt.

Key:
[1] = target: T1, recombinant human 5-HT6 receptor (Homo sapiens, UniProt P50406); assay: Radioligand binding studies: competition for [3H]LSD binding in HEK293 cell membranes; details: [3H]LSD (5 nM) displacement, membranes of HEK293 cells stably expressing the receptor, 60 min at 37° C., pH 7.4
T1 construct: expressed in transfected cells; membranes used
T1 sequence (P50406 whole entry): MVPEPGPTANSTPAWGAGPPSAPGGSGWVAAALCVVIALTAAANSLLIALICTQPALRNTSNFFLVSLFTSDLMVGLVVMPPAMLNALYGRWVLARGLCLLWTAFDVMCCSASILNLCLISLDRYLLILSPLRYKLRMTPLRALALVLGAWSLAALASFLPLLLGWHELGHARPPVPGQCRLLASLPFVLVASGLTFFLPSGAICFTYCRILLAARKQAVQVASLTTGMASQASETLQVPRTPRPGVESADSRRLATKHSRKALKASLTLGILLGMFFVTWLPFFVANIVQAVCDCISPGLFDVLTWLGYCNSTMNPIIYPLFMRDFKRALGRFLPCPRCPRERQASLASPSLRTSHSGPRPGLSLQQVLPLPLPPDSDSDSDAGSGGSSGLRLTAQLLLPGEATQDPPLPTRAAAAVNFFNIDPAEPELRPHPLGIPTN
Protocol: Radioligand Binding Studies
This example illustrates in vitro radioligand binding studies of compound of formula I.
The binding activity of compounds of this invention in vitro was determined as follows. Duplicate determinations of ligand affinity are made by competing for binding of [^3H]LSD in cell membranes derived from HEK293 cells stably expressing recombinant human 5-HT6 receptor. This cell line was prepared by the method described by Monsma et al., Molecular Pharmacology, Vol. 43 pp. 320-327 (1993).
All determinations were made in assay buffer containing 50 mM Tris-HCl, 10 mM MgSO4, 0.5 mM EDTA, 1 mM ascorbic acid, pH 7.4 at 37° C., in a 250 microliter reaction volume. Assay tubes containing [^3H] LSD (5 nM), competing ligand, and membrane were incubated in a shaking water bath for 60 min. at 37° C., filtered onto Packard GF-B plates (pre-soaked with 0.3% PEI) using a Packard 96 well cell harvester and washed 3 times in ice cold 50 mM Tris-HCl. Bound [^3H] LSD was determined as radioactive counts per minute using Packard TopCount.
Displacement of [3H]LSD from the binding sites was quantified by fitting concentration-binding data to a 4-parameter logistic equation:
[formula] where Hill is the Hill slope, [ligand] is the concentration of competing radioligand and IC50 is the concentration of radioligand producing half-maximal specific binding of radioligand. […]

Row | melting point | Ki [1] [nM] | Compound
1 | 143 to 144 °C |  | Cc1cnc2c(N3CCNCC3)cccc2c1Oc1ccccc1 (as salt: TFA)
2 | 254 to 255 °C (dec.) |  | COc1cccc(Oc2c(C)cnc3c(N4CCNCC4)cccc23)c1 (as salt: hydrochloride) [Compound 2, 4-(3-Methoxy-phenoxy)-3-methyl-8-piperazin-1-yl-quinoline]
3 |  | ~1 | COc1cc(N2CCNCC2)c2ncc(C)c(Oc3ccccc3)c2c1 [Compound 10, 6-Methoxy-3-methyl-4-phenoxy-8-piperazin-1-yl-quinoline]
